Test results as given in patent US7153869B2, “Substituted amino acids as erythropoietin mimetics” (priority 1998, dated 2006).
Read-outs that look alike come from different tables or passages of the source.

Biological target: T1, EBP-Ig (N-terminal 225 amino acids of the human EPO receptor joined to an Ig heavy chain) (Homo sapiens, UniProt P19235)
T1 construct: Ig heavy chain (fusion partner); made in house; host or cells: NSO cells (secreted into conditioned media)
T1 sequence (P19235 25-250 limits assumed): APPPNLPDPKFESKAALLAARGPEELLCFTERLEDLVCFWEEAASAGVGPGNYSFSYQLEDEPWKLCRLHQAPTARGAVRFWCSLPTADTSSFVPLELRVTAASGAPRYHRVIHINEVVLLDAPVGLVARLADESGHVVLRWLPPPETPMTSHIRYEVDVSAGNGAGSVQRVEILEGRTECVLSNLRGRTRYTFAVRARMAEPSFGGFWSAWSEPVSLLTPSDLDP
Assay: Inhibition of [125I]EPO binding to immobilized EBP-Ig (EPO binding protein-Ig), scintillation Flash plate competition assay
Details: for % inh @ 50 μM (Inhibition of EPO binding to EBP-Ig): 50 μM test compound, average % inhibition; for IC30 μM (Inhibition of EPO binding to EBP-Ig): 0–500 μM test compound

[1] = read-out: % inh @ 50 μM (Inhibition of EPO binding to EBP-Ig)
[2] = read-out: IC50, μM (Inhibition of EPO binding to EBP-Ig), 0.5 nM [125I]EPO, concentration reducing corrected total binding to 50%

SMILES: COc1ccc(C(=O)Nc2ccc(/C=C/CN(Cc3ccc(OCc4ccccc4)cc3)C(CCC(=O)O)C(=O)O)cc2)cc1 (centres unmarked) [compound 82]
- % inh @ 50 μM (Inhibition of EPO binding to EBP-Ig) (0.5 nM [125I]EPO): 32%
- EPO/EBP-Ig % inh @ 50 μM (Table 5, 50 μM): 32%

SMILES: COC(=O)C(CCC(=O)O)NCC=Cc1cccc(Oc2ccccc2)c1 (centres unmarked) [cpd 325, N-(3-Phenoxycinnamyl)Glu-OMe]
- EPO/EBP-Ig % inh @ 50 μM (50 μM compound, Table 19A): 6%

SMILES: Cc1ccc(Oc2cccc(CN(Cc3cccc(NCc4cccc(C#N)c4)c3)C(CC(=O)O)C(=O)O)c2)cc1 (centres unmarked) [compound 74]
- EPO/EBP-Ig % inh @ 50 μM (Table 4, 50 μM): −7%

SMILES: COC(=O)C(CCCCN)N(C/C=C/c1cccc(N)c1)C/C=C/c1cccc(N)c1 (centres unmarked) [compound 185]
- EPO/EBP-Ig % inh @ 50 μM (50 μM compound, Table 9): 29%

SMILES: O=C(O)C(F)(F)F.O=C(O)[C@H](CO)N(C/C=C/c1cccc(Oc2cccc(C(F)(F)F)c2)c1)C/C=C/c1cccc(Oc2cccc(C(F)(F)F)c2)c1 [compound 308]
- EPO/EBP-Ig % inh @ 50 μM (50 μM compound, Table 16A): 25%

SMILES: COc1ccc(CCNC(=O)C(CCCCNC(=O)OC(C)(C)C)N(C/C=C/c2cccc(Oc3ccccc3)c2)C/C=C/c2cccc(Oc3ccccc3)c2)cc1 (centres unmarked) [compound 225]
- EPO/EBP-Ig % inh @ 50 μM (50 μM compound, Table 10): 10%

SMILES: COC(=O)[C@H](CCCCNC(=O)OC(C)(C)C)NC/C=C/c1cccc(Oc2ccccc2)c1 [compound 316]
- EPO/EBP-Ig % inh @ 50 μM (50 μM compound, Table 18A): 20%

SMILES: O=C(O)CC(C(=O)NCCCOCCOCCOCCCNC(=O)C(CC(=O)O)N(Cc1ccc(OCc2ccccc2)cc1)Cc1ccc(OCc2ccccc2)cc1)N(Cc1ccc(OCc2ccccc2)cc1)Cc1ccc(OCc2ccccc2)cc1 (centres unmarked) [compound 244]
- IC50: 28 µM
- IC30 μM (Inhibition of EPO binding to EBP-Ig) (0.5 nM [125I]EPO): 1 µM
- inhibition at 50 µM [1]: 66%
- inhibition at 50 µM (read-out: EPO/EBP-Ig % inh @ 50 μM, Table 11, 50 μM): 66%

SMILES: NCCCCC(C(=O)NCCc1ccccc1)N(C/C=C/c1cccc(Oc2ccccc2)c1)C/C=C/c1cccc(Oc2ccccc2)c1 (centres unmarked) [compound 239]
- IC30 μM (Inhibition of EPO binding to EBP-Ig) (0.5 nM [125I]EPO): 8 µM
- EPO/EBP-Ig % inh @ 50 μM (50 μM compound, Table 10): 46%
- % inh @ 50 μM (Inhibition of EPO binding to EBP-Ig) (0.5 nM [125I]EPO): 46%
- IC50 [2]: 50 µM

SMILES: O=C(O)CCCC(=O)NCCCCC(C(=O)NCCOCCOCCNC(=O)C(CCCCNC(=O)CCCC(=O)O)N(Cc1ccc(OCc2ccccc2)cc1)Cc1ccc(OCc2ccccc2)cc1)N(Cc1ccc(OCc2ccccc2)cc1)Cc1ccc(OCc2ccccc2)cc1 (centres unmarked) [compound 263]
- IC30 μM (Inhibition of EPO binding to EBP-Ig) (0.5 nM [125I]EPO): 1 µM
- EPO/EBP-Ig % inh @ 50 μM (50 μM compound, Table 13): 88%
- % inh @ 50 μM (Inhibition of EPO binding to EBP-Ig) (0.5 nM [125I]EPO): 88%
- IC50 [2]: 1.5 µM

SMILES: O=C(O)CCCC(=O)NCCCCC(C(=O)NCCCOCCCCOCCCNC(=O)C(CCCCNC(=O)CCCC(=O)O)N(Cc1ccc(OCc2ccccc2)cc1)Cc1ccc(OCc2ccccc2)cc1)N(Cc1ccc(OCc2ccccc2)cc1)Cc1ccc(OCc2ccccc2)cc1 (centres unmarked) [compound 266]
- IC30 μM (Inhibition of EPO binding to EBP-Ig) (0.5 nM [125I]EPO): 1 µM
- EPO/EBP-Ig % inh @ 50 μM (50 μM compound, Table 13): 82%
- % inh @ 50 μM (Inhibition of EPO binding to EBP-Ig) (0.5 nM [125I]EPO): 82%
- IC50 [2]: 4 µM

SMILES: NCCCCC(C(=O)NCc1ccccc1)N(CC=Cc1ccccc1)CC=Cc1ccccc1 (centres unmarked) [compound 235]
- IC30 μM (Inhibition of EPO binding to EBP-Ig) (0.5 nM [125I]EPO): 20 µM
- inhibition at 50 µM [1]: 49%
- inhibition at 50 µM (read-out: EPO/EBP-Ig % inh @ 50 μM, 50 μM compound, Table 10): 49%
- IC50 [2]: 50 µM

SMILES: CC(C)[C@H](NC/C=C/c1ccc(C(F)(F)F)cc1)C(=O)O.O=C(O)C(F)(F)F [compound 370]
- EPO/EBP-Ig % inh @ 50 μM (50 μM compound): 0%

SMILES: O=C(O)CCC(C(=O)O)N(C/C=C/c1cccc(Oc2cccc(C(F)(F)F)c2)c1)C/C=C/c1cccc(Oc2cccc(C(F)(F)F)c2)c1 (centres unmarked) [compound 105]
- IC50: 35 µM
- IC30 μM (Inhibition of EPO binding to EBP-Ig) (0.5 nM [125I]EPO): 25 µM
- inhibition at 50 µM [1]: 70%
- inhibition at 50 µM (read-out: EPO/EBP-Ig % inh @ 50 μM, Table 6, 50 μM): 70%

SMILES: CC(C)(C)OC[C@@H](C(=O)O)N(C/C=C/c1cccc(Oc2ccc(C(C)(C)C)cc2)c1)C/C=C/c1cccc(Oc2ccc(C(C)(C)C)cc2)c1 [compound 304]
- EPO/EBP-Ig % inh @ 50 μM (50 μM compound, Table 16A): 19%

SMILES: O=C(O)C(F)(F)F.O=C(O)CC[C@H](NC/C=C/c1ccc(-c2ccccc2)cc1)C(=O)O [compound 329]
- EPO/EBP-Ig % inh @ 50 μM (50 μM compound, Table 19A): 13%

SMILES: COC(=O)[C@H](CCCCN)NC/C=C/c1ccc(C(=O)O)cc1 [compound 314]
- EPO/EBP-Ig % inh @ 50 μM (50 μM compound, Table 18A): 12%

SMILES: O=C(O)[C@H](CO)N(C/C=C/c1cccc(Oc2ccccc2)c1)C/C=C/c1cccc(Oc2ccccc2)c1 [cpd 300, N,N-Bis(3-phenoxycinnamyl)Ser-OH]
- IC50: 145 µM
- IC30 μM (Inhibition of EPO binding to EBP-Ig) (0.5 nM [125I]EPO): 35 µM
- inhibition at 50 µM [1]: 57%
- inhibition at 50 µM (read-out: EPO/EBP-Ig % inh @ 50 μM, 50 μM compound, Table 16A): 57%

SMILES: COC(=O)C(CCCCNC(=O)OC(C)(C)C)N(C/C=C/c1cccc([N+](=O)[O-])c1)C/C=C/c1cccc([N+](=O)[O-])c1 (centres unmarked) [compound 183]
- EPO/EBP-Ig % inh @ 50 μM (50 μM compound, Table 9): 36%
- % inh @ 50 μM (Inhibition of EPO binding to EBP-Ig) (0.5 nM [125I]EPO): 36%

SMILES: COC(=O)[C@H](COC(C)(C)C)N(C/C=C/c1ccc(-c2ccccc2)cc1)C/C=C/c1ccc(-c2ccccc2)cc1 [compound 291]
- EPO/EBP-Ig % inh @ 50 μM (50 μM compound, Table 16A): 17%

SMILES: COC(=O)C(COC(C)(C)C)N(CC=Cc1cccc(Oc2ccccc2)c1)CC=Cc1cccc(Oc2ccccc2)c1 (centres unmarked) [cpd 290, N,N-bis(3-Phenoxycinnamyl)Ser(t-Bu)-OMe]
- EPO/EBP-Ig % inh @ 50 μM (50 μM compound, Table 16A): 0%
